Results from patent publication US20150087723A1, “MICROBIAL COMPOSITION” (Rohm and Haas Company, priority 2011, published 2015).

Key:
Assay in all cases: Antimicrobial efficacy in water, 15 seconds contact, mean bacterial survival NMBS by colony count
Type in all cases: cell-based
[1] = system: Staphylococcus aureus (10788 strain); details: for NMBS: alone, S. Aureus, 15 seconds contact; for MBC (minimum biocidal concentration): single component, against S. Aureus, in water
Experimental: Selected materials were also tested against a representative Gram positive Staphylococcus aureus.
This suspension was separated into equal volumes and centrifuged at 4000 rpm for 15 minutes. Following centrifugation the pellet was re-suspended in saline to give a final concentration of 0.35 OD620 equivalent to about 10^8 cells per millilitre for this particular organism. Here, OD620 indicates the absorbance of a sample in a cuvette of 1.0 cm path length at a wavelength of 620 nm. This bacterial stock was used for assaying against antimicrobial actives (in triplicate).
(§1) The following assay describes the testing of 8 materials using 6 dilutions across half of a 96-well micro litre plate (MTP). Using this approach it is possible to assay 16 actives (without replicates) with, one full dilution plate, replicating this set up in two halves of the plate columns, 1-6 and 7-12.
(§2) IM solutions of the test actives were prepared in dimethylsulphoxide (DMSO).
This MTP was labeled as the “Screening plate”.
(§3) In another MTP, labeled as the “Dilution plate”, 270 μl of D/E neutralising solution from DIFCO Composition was added to column 1. The composition of the neutralising solution was as follows: pancreatic digest of casein, 5.0 g/L; Yeast Extract, 2.5 g/L; Dextrose, 10 g/L, sodium thioglycollate, 1.0 g/L, sodium thiosulphate, 6.0 g/L; sodium bisulphite, 2.5 g/L; Polysorbate 80, 5.0 g/L; lecithin 7.0 g/L; bromocresol purple, 0.02 g/L with a pH is the range 7.6±0.2.
(§4) 270 μl of tryptone diluent solution was added to all the remaining wells of the Dilution MTP (columns 2-6).
(§5) Bacterial stock (30 μl) was then added to the prepared 270 μl of the solution of actives in the Screening Plate and mixed, using a multichannel pipette with 8 tips to aspirate and dispense the same volume of bacterial stock in parallel to 8 wells in rows A-H. After a contact time of 15 seconds, the mixtures were quenched by transferring 30 μl volumes of the mixtures into the 270 μl D/E neutralising solution in the prepared dilution plate, using aspiration to mix. After exactly 5 minutes in the D/E neutralising solution, 30 μl volumes were transferred from column 1 to column 2 of the Dilution MTP and mixed, before transferring further 30 μl volumes from column 2 into column 3. This process was repeated serially diluting the bacteria across the plate to column 6.
(§6) 30 μl volumes from each well in the Dilution MTP were transferred onto pre-labeled segment of Tryptone Soya Agar (TSA) plates starting from the lowest bacterial concentration (highest dilution, column 6) to the highest bacterial concentration (column 1). The TSA plates were allowed to stand for ca. 2 hours so that the 30 μl inocula spots could dry and the plates were then inverted and incubated overnight at 37° C. before enumerating the bacterial colonies at the labeled dilutions to determine the effects of the actives on bacterial growth.
(§7) Mean bacterial survival numbers NMBS (expressed in Log CFU/ml) are obtained by first determining the segment of the TSA plate where the number of bacterial colonies is countable. From the colony number in this segment, NMBS is calculated by the formula: […]
Here, Ncol is the colony count, and DF is the dilution factor taken from the MTP-well corresponding to the TSA plate segment (i.e. DF may range from 1 for the quench, to 6 for the highest dilution). The factor 100/3 is a conversion factor from the volume of the inocula spot to one millilitre.
Every assay test was performed in triplicate.
Thus, a value of NMBS of about 7 corresponds to a count of about 3 colonies from the fifth dilution well, i.e. with DF=5. Such a count of about 7 is generally observed when bacteria are exposed to non-biocidal materials. In case no surviving colonies are observed in any segment of the TSA plate, this is interpreted as complete kill and a value of NMBS=0 is reported.
S. aureus Bacterial stock was prepared as shown below and the antibacterial efficacy of the active was carried out as explained earlier for E. Coli.

[2] = system: Escherichia coli (10536 strain)
Experimental: An overnight culture of Escherichia coli (10536 strain) was prepared in 50 ml total volume of TSB broth, grown for ca. 18 hrs at 37° C. and shaken at 150 rpm. 1 ml of this overnight E. coli culture was transferred to 50 ml of fresh TSB broth and incubated at 37° C. at 150 rpm for ca. 4 hours. […] This bacterial stock was used for assaying against antimicrobial actives (in triplicate).
as §1, §2
Aliquots (270 μl) of the materials at 1.11 times the final concentration were dispensed into the wells of the MTP along one column (A1-H1). This MTP was labeled as the “Screening plate”.
as §3, §4, §5, §6, §7
Here, Ncol is the colony count, and DF is the dilution factor taken from the MTP-well corresponding to the TSA plate segment (i.e. DF may range from 1 for the quench, to 6 for the highest dilution).

[3] = system: Staphylococcus aureus (10788 strain)

Q: How did the NMBS ([1]; 0.05% w/v) turn out when `CCCc1ccccc1O` [2-n-propylphenol] was run?
A: 7.40 log CFU/ml

Q: What about the NMBS ([1]; 0.125% w/v) of the same compound?
A: 7.06 log CFU/ml

Q: What about the NMBS ([1]; 0.5% w/v) of the same compound?
A: 0 log CFU/ml

Q: And the NMBS ([1]; […] w/v)?
A: 4.12 log CFU/ml

Q: And the “MBC (minimum biocidal concentration)” value [1]?
A: 0.5 % w/v

Q: `CC(C)=CCC/C(C)=C/CO` [(E)-3,7-dimethylocta-2,6-dien-1-ol] was tested. Which “Log reduction E. coli ATCC 10536” value ([2]; component alone at 0.1% w/v) did it give?
A: 1.27

Q: And the “Log reduction E. coli ATCC 10536” value ([2]; component alone at […] w/v)?
A: 1.94

Q: And the NMBS ([1]; 0.5% w/v)?
A: 7.43 log CFU/ml

Q: What about the NMBS ([1]; 1.0% w/v) of the same compound?
A: 7.18 log CFU/ml

Q: What about the “MBC (minimum biocidal concentration)” value [1] of the same compound?
A: >1.5 % w/v

Q: And the “Log reduction S. aureus ATCC 6538” value ([3]; component alone at 0.1% w/v)?
A: −0.12

Q: What about the “Log reduction S. aureus ATCC 6538” value ([3]; component alone at […] w/v) of the same compound?
A: −0.06
